Laboratory results as given in article PMC10175918 (Communications Biology, 2023).
Where two headings read alike, the source gives them in different places.

Legend:
Test in all cases: TGFα-shedding assay-based GPCR screening with chimeric Gα subunit proteins
Format in all cases: cell-based
348 GPCRs [1] = biological target: T1, 348 GPCRs (Homo sapiens, UniProt Q9HB89); details: 10µM, Favipiravir 100μM
T1 construct: expressed in transfected cells; host or cells: HEK293A
T1 sequence (Q9HB89 1-426): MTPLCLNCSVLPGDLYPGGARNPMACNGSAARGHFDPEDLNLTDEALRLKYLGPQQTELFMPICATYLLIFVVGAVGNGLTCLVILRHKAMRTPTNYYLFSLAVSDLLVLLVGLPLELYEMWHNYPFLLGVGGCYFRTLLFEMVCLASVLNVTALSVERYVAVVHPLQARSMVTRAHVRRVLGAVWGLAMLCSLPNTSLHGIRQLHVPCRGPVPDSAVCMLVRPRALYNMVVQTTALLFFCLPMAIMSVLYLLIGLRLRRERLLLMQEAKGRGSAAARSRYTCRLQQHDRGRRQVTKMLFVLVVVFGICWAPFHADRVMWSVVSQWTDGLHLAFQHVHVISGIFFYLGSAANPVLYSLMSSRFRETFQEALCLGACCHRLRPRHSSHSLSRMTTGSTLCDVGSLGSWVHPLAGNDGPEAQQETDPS

348 GPCRs [2] = biological target: T2, 348 GPCRs (Homo sapiens, UniProt Q9BZJ6)
T2 construct: expressed in transfected cells; host or cells: HEK293A
T2 sequence (Q9BZJ6 whole entry): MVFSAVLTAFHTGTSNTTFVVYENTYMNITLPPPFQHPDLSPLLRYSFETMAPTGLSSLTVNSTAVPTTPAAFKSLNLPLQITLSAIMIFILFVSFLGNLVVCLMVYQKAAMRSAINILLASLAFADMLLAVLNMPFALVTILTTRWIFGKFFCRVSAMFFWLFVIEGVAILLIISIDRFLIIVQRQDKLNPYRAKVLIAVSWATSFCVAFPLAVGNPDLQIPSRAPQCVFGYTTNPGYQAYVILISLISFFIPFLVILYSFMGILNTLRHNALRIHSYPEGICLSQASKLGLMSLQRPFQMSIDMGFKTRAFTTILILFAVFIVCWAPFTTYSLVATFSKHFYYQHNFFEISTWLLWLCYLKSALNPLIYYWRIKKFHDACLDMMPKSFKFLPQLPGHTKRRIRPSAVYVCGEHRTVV

348 GPCRs [3] = biological target: T3, 348 GPCRs (Homo sapiens, UniProt P21731); details: 10µM, Favipiravir 100μM
T3 construct: expressed in transfected cells; host or cells: HEK293A
T3 sequence (P21731 1-343): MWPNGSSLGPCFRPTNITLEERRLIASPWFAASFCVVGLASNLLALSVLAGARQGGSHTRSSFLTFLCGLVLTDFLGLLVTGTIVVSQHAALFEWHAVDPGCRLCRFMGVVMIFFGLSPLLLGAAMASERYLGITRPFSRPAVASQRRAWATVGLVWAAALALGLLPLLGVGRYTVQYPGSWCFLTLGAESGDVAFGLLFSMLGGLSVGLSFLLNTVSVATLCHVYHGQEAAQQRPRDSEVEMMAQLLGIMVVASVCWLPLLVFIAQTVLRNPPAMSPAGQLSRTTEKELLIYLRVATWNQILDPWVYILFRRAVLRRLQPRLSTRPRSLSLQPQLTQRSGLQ

348 GPCRs [4] = biological target: T4, 348 GPCRs (Homo sapiens, UniProt P24530); details: 10µM, Favipiravir 100μM
T4 construct: expressed in transfected cells; host or cells: HEK293A
T4 sequence (P24530 27-442): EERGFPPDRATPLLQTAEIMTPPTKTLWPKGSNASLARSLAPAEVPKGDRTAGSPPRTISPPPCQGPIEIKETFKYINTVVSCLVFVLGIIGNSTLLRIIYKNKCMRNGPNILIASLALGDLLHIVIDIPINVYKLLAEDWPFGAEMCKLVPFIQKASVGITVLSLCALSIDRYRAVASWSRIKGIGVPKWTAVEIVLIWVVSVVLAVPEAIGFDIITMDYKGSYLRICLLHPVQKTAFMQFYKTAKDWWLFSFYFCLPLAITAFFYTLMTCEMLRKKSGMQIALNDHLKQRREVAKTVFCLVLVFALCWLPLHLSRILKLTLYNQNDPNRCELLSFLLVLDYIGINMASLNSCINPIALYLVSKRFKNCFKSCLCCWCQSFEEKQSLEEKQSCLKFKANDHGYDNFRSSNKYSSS

348 GPCRs [5] = biological target: T5, 348 GPCRs (Homo sapiens, UniProt O14843); details: 10µM, Favipiravir 100μM
T5 construct: expressed in transfected cells; host or cells: HEK293A
T5 sequence (O14843 1-346): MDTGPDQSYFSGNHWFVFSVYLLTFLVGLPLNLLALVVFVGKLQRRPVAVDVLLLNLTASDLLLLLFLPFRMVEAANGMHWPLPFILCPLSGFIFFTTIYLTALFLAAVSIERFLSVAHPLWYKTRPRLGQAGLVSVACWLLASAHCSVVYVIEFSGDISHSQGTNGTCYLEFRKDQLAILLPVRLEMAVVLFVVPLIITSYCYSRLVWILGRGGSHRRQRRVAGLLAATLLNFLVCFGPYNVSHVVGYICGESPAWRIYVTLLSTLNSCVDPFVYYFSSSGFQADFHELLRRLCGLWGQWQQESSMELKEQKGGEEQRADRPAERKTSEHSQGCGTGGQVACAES

348 GPCRs [6] = biological target: T6, 348 GPCRs (Homo sapiens, UniProt O00222); details: 10µM, Favipiravir 100μM
T6 construct: expressed in transfected cells; host or cells: HEK293A
T6 sequence (O00222 34-908): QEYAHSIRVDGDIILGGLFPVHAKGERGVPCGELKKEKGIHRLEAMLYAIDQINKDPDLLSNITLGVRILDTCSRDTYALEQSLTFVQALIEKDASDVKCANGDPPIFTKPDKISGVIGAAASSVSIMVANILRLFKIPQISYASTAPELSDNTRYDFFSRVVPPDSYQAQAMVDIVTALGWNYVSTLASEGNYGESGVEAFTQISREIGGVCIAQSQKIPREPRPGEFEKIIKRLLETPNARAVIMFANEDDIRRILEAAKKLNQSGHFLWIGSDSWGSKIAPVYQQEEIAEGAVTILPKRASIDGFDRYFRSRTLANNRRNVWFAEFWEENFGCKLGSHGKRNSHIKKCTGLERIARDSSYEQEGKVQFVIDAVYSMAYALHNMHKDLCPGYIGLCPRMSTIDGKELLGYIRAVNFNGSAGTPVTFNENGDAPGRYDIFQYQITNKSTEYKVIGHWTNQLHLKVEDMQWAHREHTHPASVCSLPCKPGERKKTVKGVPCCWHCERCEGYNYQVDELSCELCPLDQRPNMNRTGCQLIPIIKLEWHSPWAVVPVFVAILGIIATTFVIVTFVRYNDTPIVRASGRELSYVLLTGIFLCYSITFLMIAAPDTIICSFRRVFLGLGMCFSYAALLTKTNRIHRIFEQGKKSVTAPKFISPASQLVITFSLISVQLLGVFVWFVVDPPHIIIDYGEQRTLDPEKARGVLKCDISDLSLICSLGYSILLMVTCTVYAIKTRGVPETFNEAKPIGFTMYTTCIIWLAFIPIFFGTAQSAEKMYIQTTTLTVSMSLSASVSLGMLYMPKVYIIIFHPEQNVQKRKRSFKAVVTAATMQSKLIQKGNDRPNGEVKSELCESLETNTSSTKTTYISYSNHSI

348 GPCRs [7] = biological target: T7, 348 GPCRs (Homo sapiens, UniProt P46094)
T7 construct: expressed in transfected cells; host or cells: HEK293A
T7 sequence (P46094 1-333): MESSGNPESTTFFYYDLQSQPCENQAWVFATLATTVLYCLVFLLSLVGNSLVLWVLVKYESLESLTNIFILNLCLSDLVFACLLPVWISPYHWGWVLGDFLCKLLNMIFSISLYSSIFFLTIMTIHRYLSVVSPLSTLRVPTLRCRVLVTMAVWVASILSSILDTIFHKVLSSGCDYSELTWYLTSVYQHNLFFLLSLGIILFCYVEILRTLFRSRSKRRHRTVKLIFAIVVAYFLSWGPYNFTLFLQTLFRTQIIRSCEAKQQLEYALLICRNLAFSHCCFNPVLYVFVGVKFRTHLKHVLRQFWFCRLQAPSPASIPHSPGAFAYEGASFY

348 GPCRs [8] = biological target: T8, 348 GPCRs (Homo sapiens, UniProt P34972); details: 10µM, Favipiravir 100μM
T8 construct: expressed in transfected cells; host or cells: HEK293A
T8 sequence (P34972 whole entry): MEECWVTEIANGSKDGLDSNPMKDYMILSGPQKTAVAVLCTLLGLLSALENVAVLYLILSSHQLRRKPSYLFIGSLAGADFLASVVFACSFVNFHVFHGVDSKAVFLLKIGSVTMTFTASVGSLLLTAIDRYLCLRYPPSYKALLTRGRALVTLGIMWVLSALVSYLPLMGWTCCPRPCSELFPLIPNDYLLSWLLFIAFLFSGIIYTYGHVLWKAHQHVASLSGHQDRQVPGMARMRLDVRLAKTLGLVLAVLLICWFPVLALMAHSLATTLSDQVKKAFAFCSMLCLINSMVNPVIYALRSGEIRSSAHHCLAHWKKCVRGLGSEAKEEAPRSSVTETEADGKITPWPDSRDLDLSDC

348 GPCRs [9] = biological target: T9, 348 GPCRs (Homo sapiens, UniProt Q8TCW9)
T9 construct: expressed in transfected cells; host or cells: HEK293A
T9 sequence (Q8TCW9 whole entry): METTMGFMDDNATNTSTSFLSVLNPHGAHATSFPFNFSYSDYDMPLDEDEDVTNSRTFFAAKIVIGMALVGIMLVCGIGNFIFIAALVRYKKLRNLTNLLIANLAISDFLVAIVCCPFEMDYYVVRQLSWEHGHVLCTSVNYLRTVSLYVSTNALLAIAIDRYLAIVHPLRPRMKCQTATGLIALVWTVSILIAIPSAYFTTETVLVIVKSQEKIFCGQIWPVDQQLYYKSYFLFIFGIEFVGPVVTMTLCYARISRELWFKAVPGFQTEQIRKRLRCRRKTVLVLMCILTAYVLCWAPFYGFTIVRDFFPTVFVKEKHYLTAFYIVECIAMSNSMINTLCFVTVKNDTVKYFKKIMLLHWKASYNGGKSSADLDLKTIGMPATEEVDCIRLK

[10] = NMUR1 (neuromedin U receptor 1), read-out: % GPCR activation compared to TPA
[11] = GPCR GPR63 (G Protein-Coupled Receptor 63), read-out: % GPCR activation compared to TPA
[12] = TBXA2R (thromboxane A2 receptor), read-out: % GPCR activation compared to TPA
[13] = EDNRB (endothelin receptor type B), read-out: % GPCR activation compared to TPA
[14] = FFA3 (free fatty acid receptor 3), read-out: % GPCR activation compared to TPA
[15] = GRM8 (glutamate receptor, metabotropic 8), read-out: % GPCR activation compared to TPA
[16] = GPCR XCR1 (chemokine (C motif) receptor 1/GPR5), read-out: % GPCR activation compared to TPA
[17] = CB2 (cannabinoid receptor 2), read-out: % GPCR activation compared to TPA
[18] = GPCR PK1 (prokineticin receptor 1), read-out: % GPCR activation compared to TPA
[19] = read-out: % GPCR activation compared to TPA, NMUR1 (neuromedin U receptor 1)
[20] = read-out: % GPCR activation compared to TPA, GPCR GPR63 (G Protein-Coupled Receptor 63)
[21] = read-out: % GPCR activation compared to TPA, TBXA2R (thromboxane A2 receptor)
[22] = read-out: % GPCR activation compared to TPA, EDNRB (endothelin receptor type B)
[23] = read-out: % GPCR activation compared to TPA, FFA3 (free fatty acid receptor 3)
[24] = read-out: % GPCR activation compared to TPA, GRM8 (glutamate receptor, metabotropic 8)
[25] = read-out: % GPCR activation compared to TPA, GPCR XCR1 (chemokine (C motif) receptor 1/GPR5)
[26] = read-out: % GPCR activation compared to TPA, CB2 (cannabinoid receptor 2)
[27] = read-out: % GPCR activation compared to TPA, GPCR PK1 (prokineticin receptor 1)

| Structure (SMILES) | activation at 10 µM (348 GPCRs [1]; [10]) | activation at 10 µM (348 GPCRs [2]; [11]) | activation at 10 µM (348 GPCRs [3]; [12]) | activation at 100 µM (348 GPCRs [4]; [13]) | activation at 10 µM (348 GPCRs [5]; [14]) | activation at 10 µM (348 GPCRs [6]; [15]) | activation at 10 µM (348 GPCRs [7]; [16]) | activation at 100 µM (348 GPCRs [8]; [17]) | activation at 10 µM (348 GPCRs [9]; [18]) | activation at 10 µM (348 GPCRs [1]; [19]) | activation at 10 µM (348 GPCRs [2]; [20]) | activation at 10 µM (348 GPCRs [3]; [21]) | activation at 100 µM (348 GPCRs [4]; [22]) | activation at 10 µM (348 GPCRs [5]; [23]) | activation at 10 µM (348 GPCRs [6]; [24]) | activation at 10 µM (348 GPCRs [7]; [25]) | activation at 100 µM (348 GPCRs [8]; [26]) | activation at 10 µM (348 GPCRs [9]; [27]) | other results |
| --- | --- | --- | --- | --- | --- | --- | --- | --- | --- | --- | --- | --- | --- | --- | --- | --- | --- | --- | --- |
| N#C[C@@]1(c2ccc3c(N)ncnn23)O[C@H](CO)[C@@H](O)[C@H]1O [GS441524] | -0.746% | 2.45% | -0.528% | -4.24% | -0.449% | -1.24% | -1.92% | -0.772% | -2.68% |  |  |  |  |  |  |  |  |  |  |
| CCC(CC)COC(=O)[C@H](C)N[P@](=O)(OC[C@H]1O[C@@](C#N)(c2ccc3c(N)ncnn23)[C@H](O)[C@@H]1O)Oc1ccccc1 [remdesivir] |  |  |  |  |  |  |  |  |  | 0.248% | 1.1% | -0.881% | -2.2% | 4.74% | -1.11% | 0.628% | -0.086% | -3.33% |  |
| CC(C)OC(=O)[C@H](C)N[P@](=O)(OC[C@H]1O[C@@H](n2ccc(=O)[nH]c2=O)[C@](C)(F)[C@@H]1O)Oc1ccccc1 [sofosbuvir] |  |  |  |  |  |  |  |  |  | -2.52% | 1.22% | 0.249% | -2.57% | 0.217% | -2.01% | -0.208% | -2.78% | -1.13% |  |

Now from value to molecule, other results behind:

| activation at 10 µM (348 GPCRs [1]; [10]) | activation at 10 µM (348 GPCRs [2]; [11]) | activation at 10 µM (348 GPCRs [3]; [12]) | activation at 100 µM (348 GPCRs [4]; [13]) | activation at 10 µM (348 GPCRs [5]; [14]) | activation at 10 µM (348 GPCRs [6]; [15]) | activation at 10 µM (348 GPCRs [7]; [16]) | activation at 100 µM (348 GPCRs [8]; [17]) | activation at 10 µM (348 GPCRs [9]; [18]) | Structure (SMILES) | activation at 10 µM (348 GPCRs [1]; [19]) | activation at 10 µM (348 GPCRs [2]; [20]) | activation at 10 µM (348 GPCRs [3]; [21]) | activation at 100 µM (348 GPCRs [4]; [22]) | activation at 10 µM (348 GPCRs [5]; [23]) | activation at 10 µM (348 GPCRs [6]; [24]) | activation at 10 µM (348 GPCRs [7]; [25]) | activation at 100 µM (348 GPCRs [8]; [26]) | activation at 10 µM (348 GPCRs [9]; [27]) | other results |
| --- | --- | --- | --- | --- | --- | --- | --- | --- | --- | --- | --- | --- | --- | --- | --- | --- | --- | --- | --- |
| 0.18% |  | -0.974% | -3.11% | -0.552% | -1.56% |  | 1.24% |  | NC(=O)c1nc(F)cnc1O [favipiravir, 6-fluoro-3-hydroxy-2-pyrazinecarboxamide] |  |  |  |  |  |  |  |  |  | activation at 100 µM (348 GPCRs [2]; GPCR GPR63 (G Protein-Coupled Receptor 63), 100μM, read-out: % GPCR activation compared to TPA): -0.607%; activation at 100 µM (348 GPCRs [7]; GPCR XCR1 (chemokine (C motif) receptor 1/GPR5), 100μM, read-out: % GPCR activation compared to TPA): 0.846%; activation at 100 µM (348 GPCRs [9]; GPCR PK1 (prokineticin receptor 1), 100μM, read-out: % GPCR activation compared to TPA): -2.82% |
| -0.0262% | -0.167% | -1.16% | -3.6% | -0.0973% | -2.47% | -0.399% | -1.91% | -3.53% | CC(C)C(=O)OC[C@H]1O[C@@H](n2ccc(NO)nc2=O)[C@H](O)[C@@H]1O [molnupiravir] |  |  |  |  |  |  |  |  |  |  |
